In ChEMBL document CHEMBL1144574, “Synthesis and identification of novel oxa-steroids as progesterone receptor antagonists” (Bioorg Med Chem Lett, 2007) one finds IC50 and Ratio IC50 data, which are given here for eight compounds.

In one assay the target is T1, Glucocorticoid receptor (Homo sapiens, UniProt P04150).
T1 sequence (P04150 whole entry): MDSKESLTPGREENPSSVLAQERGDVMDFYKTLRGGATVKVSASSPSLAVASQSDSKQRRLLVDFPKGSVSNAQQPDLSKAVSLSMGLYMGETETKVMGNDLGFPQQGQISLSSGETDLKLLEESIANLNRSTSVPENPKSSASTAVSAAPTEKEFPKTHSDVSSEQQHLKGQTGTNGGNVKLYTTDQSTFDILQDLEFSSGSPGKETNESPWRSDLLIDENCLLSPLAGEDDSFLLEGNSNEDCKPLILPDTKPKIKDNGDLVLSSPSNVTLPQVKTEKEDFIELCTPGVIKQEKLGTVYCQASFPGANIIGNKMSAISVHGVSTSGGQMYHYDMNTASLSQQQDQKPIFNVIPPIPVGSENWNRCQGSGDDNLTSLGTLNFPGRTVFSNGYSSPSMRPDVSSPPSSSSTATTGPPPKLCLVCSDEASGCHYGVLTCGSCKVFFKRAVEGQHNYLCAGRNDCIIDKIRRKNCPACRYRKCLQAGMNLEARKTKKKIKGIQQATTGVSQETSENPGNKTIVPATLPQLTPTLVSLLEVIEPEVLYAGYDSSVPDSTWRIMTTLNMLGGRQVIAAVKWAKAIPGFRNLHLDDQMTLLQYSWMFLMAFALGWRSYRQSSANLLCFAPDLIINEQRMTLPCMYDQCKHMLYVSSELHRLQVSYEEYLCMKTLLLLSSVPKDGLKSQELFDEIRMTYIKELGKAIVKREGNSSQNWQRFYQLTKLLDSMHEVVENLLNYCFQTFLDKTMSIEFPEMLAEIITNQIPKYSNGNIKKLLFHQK
Put plainly: Antagonist activity at glucocorticoid receptor in human A549 cells assessed as inhibition of corticoid-induced GRE-linked luciferase reporter gene activity. It is filed as functional, cell-based. In general terms: In a reporter assay the amount or activity of a reporter protein is the signal.

For the next assay, the target named is T2, Progesterone receptor (Homo sapiens, UniProt P06401).
T2 sequence (P06401 whole entry): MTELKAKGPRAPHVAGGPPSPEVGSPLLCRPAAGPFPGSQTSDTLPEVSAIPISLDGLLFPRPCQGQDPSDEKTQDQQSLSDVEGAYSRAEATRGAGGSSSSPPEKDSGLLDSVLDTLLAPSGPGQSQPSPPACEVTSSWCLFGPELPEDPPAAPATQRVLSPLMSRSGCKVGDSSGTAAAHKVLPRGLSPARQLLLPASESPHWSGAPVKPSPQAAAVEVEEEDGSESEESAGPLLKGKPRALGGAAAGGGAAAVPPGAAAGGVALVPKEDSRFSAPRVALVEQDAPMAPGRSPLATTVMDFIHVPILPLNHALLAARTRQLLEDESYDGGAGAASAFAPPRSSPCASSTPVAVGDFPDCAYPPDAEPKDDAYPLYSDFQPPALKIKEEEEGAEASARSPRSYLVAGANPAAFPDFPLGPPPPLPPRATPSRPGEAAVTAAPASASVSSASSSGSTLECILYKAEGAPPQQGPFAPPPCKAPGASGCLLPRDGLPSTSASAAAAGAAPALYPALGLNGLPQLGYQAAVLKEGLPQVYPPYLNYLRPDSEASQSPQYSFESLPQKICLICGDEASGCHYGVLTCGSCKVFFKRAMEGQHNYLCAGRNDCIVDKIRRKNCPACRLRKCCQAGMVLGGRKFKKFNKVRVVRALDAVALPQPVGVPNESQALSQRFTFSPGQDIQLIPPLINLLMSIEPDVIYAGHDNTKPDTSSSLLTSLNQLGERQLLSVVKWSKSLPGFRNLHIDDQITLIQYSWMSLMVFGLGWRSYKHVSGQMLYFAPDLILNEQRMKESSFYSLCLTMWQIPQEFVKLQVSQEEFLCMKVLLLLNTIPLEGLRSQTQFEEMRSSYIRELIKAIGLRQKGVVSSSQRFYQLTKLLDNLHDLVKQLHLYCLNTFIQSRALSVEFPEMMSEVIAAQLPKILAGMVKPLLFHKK
The experiment in a line: Antagonist activity at progesterone receptor in human T47D cells assessed as inhibition of progesterone-induced alkaline phosphatase activity. The format is functional, cell-based.

The species named for the next assay is Homo sapiens. The experiment in a line: Selectivity for human progesterone receptor over human glucocorticoid receptor.

A word on the IC50: it is the concentration needed to halve the response being measured. `CN(C)c1ccc([C@H]2C[C@@]3(C)[C@@H](CC[C@@]3(O)C#CC(C)(C)O)[C@@H]3OCC4=CC(=O)CCC4=C32)cc1`: the IC50 at Glucocorticoid receptor was 558 nM; on Progesterone receptor, greater than 1000 nM.

Take `CC#C[C@]1(O)CC[C@H]2[C@@H]3OCC4=CC(=O)CCC4=C3[C@@H](c3ccc(N(C)C)cc3)C[C@@]21C`: the Ratio IC50 in the assay filed under Homo sapiens amounted to 12. In addition, the half-inhibitory concentration (IC50) at Glucocorticoid receptor worked out at 86.5 nM; on Progesterone receptor, 7.5 nM.

For `CN(C)c1ccc([C@H]2C[C@@]3(C)[C@@H](CC[C@@]3(O)C#CC(F)(F)F)[C@@H]3OCC4=CC(=O)CCC4=C32)cc1`, the Ratio IC50 in the assay listed under Homo sapiens is 6. In addition, the values for the half-inhibitory concentration (IC50) at Glucocorticoid receptor and on Progesterone receptor were 55.5 nM and 9.3 nM, respectively.

With `CN(C)c1ccc([C@H]2C[C@@]3(C)[C@@H](CC[C@@]3(O)C#CC(C)(C)C)[C@@H]3OCC4=CC(=O)CCC4=C32)cc1`, the Ratio IC50 in the assay listed under Homo sapiens was determined as 1. In addition, the figures for the IC50 on Glucocorticoid receptor and at Progesterone receptor were 167 nM and 185 nM, respectively.

For the compound `CN(C)c1ccc([C@H]2C[C@@]3(C)[C@@H](CC[C@@]3(O)C#CC3CC3)[C@@H]3OCC4=CC(=O)CCC4=C32)cc1`, in the assay filed under Homo sapiens, the Ratio IC50 came out at 4. Besides, the figures for the IC50 on Glucocorticoid receptor and on Progesterone receptor were 33.4 nM and 9.6 nM, respectively.

Turning to `C#C[C@]1(O)CC[C@H]2[C@@H]3OCC4=CC(=O)CCC4=C3[C@@H](c3ccc(N(C)C)cc3)C[C@@]21C`, the Ratio IC50 in the assay filed under Homo sapiens was 11. For the same compound, the IC50 stood at 204 nM at Glucocorticoid receptor and 19 nM on Progesterone receptor.

`CN(C)c1ccc([C@H]2C[C@@]3(C)[C@@H](CC[C@@]3(O)C#Cc3ccccc3)[C@@H]3OCC4=CC(=O)CCC4=C32)cc1`: the Ratio IC50 in the assay listed under Homo sapiens was 217. The values for the 50% inhibitory concentration (IC50) on Glucocorticoid receptor and at Progesterone receptor were 304 nM and 1.4 nM, respectively.

Regarding `CN(C)CC#C[C@]1(O)CC[C@H]2[C@@H]3OCC4=CC(=O)CCC4=C3[C@@H](c3ccc(N(C)C)cc3)C[C@@]21C`, the IC50 at Glucocorticoid receptor is greater than 3000 nM; on Progesterone receptor, greater than 1000 nM.
